These results are taken from US20240199587A1, “HETEROCYCLIC COMPOUNDS” (Hoffmann-La Roche Inc., priority 2021, published 2024).

The structures appear in SMILES notation.

The experiment has as its target T1, MAGL (Homo sapiens, UniProt Q99685).
T1 sequence (Q99685 1-303): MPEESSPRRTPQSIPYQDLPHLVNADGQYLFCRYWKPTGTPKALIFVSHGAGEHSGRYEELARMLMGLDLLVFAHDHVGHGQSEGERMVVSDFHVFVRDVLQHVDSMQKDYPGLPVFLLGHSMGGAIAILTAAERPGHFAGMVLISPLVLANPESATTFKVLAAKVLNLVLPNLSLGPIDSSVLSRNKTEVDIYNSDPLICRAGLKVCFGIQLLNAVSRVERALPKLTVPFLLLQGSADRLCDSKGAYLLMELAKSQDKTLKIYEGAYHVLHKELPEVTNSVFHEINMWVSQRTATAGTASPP
In words: 2-AG assay (MAGL inhibitory activity, hydrolysis of 2-arachidonoylglycerol to arachidonic acid followed by mass spectrometry). It counts as biochemical. To be noted: 8 μM 2-arachidonoylglycerol, 15 min pre-incubation, 30 min incubation at RT, RapidFire MS readout. The method in brief: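 Arachidonic acid released from 8 μM 2-arachidonoylglycerol was quantified by online SPE triple-quadrupole MS (negative ESI, 303.1→259.1), normalised to d8-arachidonic acid internal standard. Reaction ran 30 min at RT after 15 min RT compound pre-incubation with […] MAGL in TRIS/EDTA/Tween-20 buffer, 2.5% DMSO.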
As to `CC(C)(C)c1nc(-c2ccc(C(=O)N3CC4(CC(n5nccc5C5CC5)C4)C3)cc2)no1` [Example 180, [4-(5-tert-butyl-1,2,4-oxadiazol-3-yl)phenyl]-[6-(5-cyclopropylpyrazol-1-yl)-2-azaspiro[3.3]heptan-2-yl]methanone], the IC50 was 4690 nM.

Take `CC(C)(C)n1cc(C2CN(C(=O)N3CC4(CC(n5cnc(C6CC6)n5)C4)C3)C2)cn1` [Example 181, [3-(1-tert-butylpyrazol-4-yl)azetidin-1-yl]−[6-(3-cyclopropyl-1,2,4-triazol-1-yl)-2-azaspiro[3.3]heptan-2-yl]methanone]: 4610 nM corresponded to half-maximal inhibition (IC50).

Turning to `Cc1cc(C2CN(C(=O)N3CC4(CC(n5cnc(C6CC6)n5)C4)C3)C2)ccc1OC(F)(F)F` [Example 182, [6-(3-cyclopropyl-1,2,4-triazol-1-yl)-2-azaspiro[3.3]heptan-2-yl]-[3-[3-methyl-4-(trifluoromethoxy)phenyl]azetidin-1-yl]methanone], the IC50 was determined as 2580 nM.

On to `O=C(N1CC(Oc2ccc(C3CC3)cc2)C1)N1CC2(CC(n3cnc(C4CC4)n3)C2)C1` [Example 183, (6-(3-cyclopropyl-1H-1,2,4-triazol-1-yl)-2-azaspiro[3.3]heptan-2-yl)(3-(4-cyclopropylphenoxy)azetidin-1-yl)methanone], for which the IC50 was determined as 0.1 nM.

Consider `O=C(N1CC2(CC(Cc3ccc(F)cc3F)C2)C1)N1CC2(CC(n3cnc(C4CCC4)n3)C2)C1` [Example 184, [6-(3-cyclobutyl-1,2,4-triazol-1-yl)-2-azaspiro[3.3]heptan-2-yl]-[6-[(2,4-difluorophenyl)methyl]-2-azaspiro[3.3]heptan-2-yl]methanone], for which the IC50 is 0.1 nM.

Regarding `O=C(N1CC(Oc2nccc(C3CC3)c2Cl)C1)N1CC2(CC(n3cnc(C4CC4)n3)C2)C1` [Example 185, [3-[(3-chloro-4-cyclopropyl-2-pyridyl)oxy]azetidin-1-yl]-[6-(3-cyclopropyl-1,2,4-triazol-1-yl)-2-azaspiro[3.3]heptan-2-yl]methanone], the half-inhibitory concentration (IC50) is 0.1 nM.

`CCc1ncn(C2CC3(C2)CN(C(=O)N2CC4(CC(Cc5ccc(F)cc5F)C4)C2)C3)n1` [Example 186, [6-[(2,4-difluorophenyl)methyl]-2-azaspiro[3.3]heptan-2-yl]-[6-(3-ethyl-1,2,4-triazol-1-yl)-2-azaspiro[3.3]heptan-2-yl]methanone] came in with an IC50 of 0.1 nM.

`O=C(N1CC(Oc2ccc(C(F)(F)F)c(C3CC3)c2)C1)N1CC2(CC(n3cnc(C4CC4)n3)C2)C1` [Example 187, [6-(3-cyclopropyl-1,2,4-triazol-1-yl)-2-azaspiro[3.3]heptan-2-yl]-[3-[3-cyclopropyl-4-(trifluoromethyl)phenoxy]azetidin-1-yl]methanone] showed an IC50 of 0.2 nM.

`N#Cc1cc(C2CC2)ccc1OC1CN(C(=O)N2CC3(CC(n4cnc(C5CC5)n4)C3)C2)C1` [Example 188, 5-cyclopropyl-2-[1-[6-(3-cyclopropyl-1,2,4-triazol-1-yl)-2-azaspiro[3.3]heptane-2-carbonyl]azetidin-3-yl]oxy-benzonitrile] yielded an IC50 of 0.2 nM.

Turning to `O=C(N1CC2(CC(n3cnc(C4CC4)n3)C2)C1)N1CC2(CN(Cc3ccc(C(F)(F)F)cc3F)C2)C1` [Example 189, [6-(3-cyclopropyl-1,2,4-triazol-1-yl)-2-azaspiro[3.3]heptan-2-yl]-[6-[[2-fluoro-4-(trifluoromethyl)phenyl]methyl]-2,6-diazaspiro[3.3]heptan-2-yl]methanone], the IC50 came to 0.2 nM.

Regarding `O=C(N1CC(Oc2ccc(C3CC3)cc2F)C1)N1CC2(CC(n3cnc(C4CC4)n3)C2)C1` [Example 190, [3-(4-cyclopropyl-2-fluoro-phenoxy)azetidin-1-yl]-[6-(3-cyclopropyl-1,2,4-triazol-1-yl)-2-azaspiro[3.3]heptan-2-yl]methanone], half-maximal inhibition (IC50) was put at 0.2 nM.

`N#Cc1c(OC2CN(C(=O)N3CC4(CC(n5cnc(C6CC6)n5)C4)C3)C2)cccc1C1CC1` [Example 191, 2-cyclopropyl-6-[1-[6-(3-cyclopropyl-1,2,4-triazol-1-yl)-2-azaspiro[3.3]heptane-2-carbonyl]azetidin-3-yl]oxy-benzonitrile] returned an IC50 of 0.2 nM.

In the case of `CS(=O)(=O)c1cccc(CC2CC3(C2)CN(C(=O)N2CC4(CC(n5cnc(C6CC6)n5)C4)C2)C3)c1` [Example 192, [6-(3-cyclopropyl-1,2,4-triazol-1-yl)-2-azaspiro[3.3]heptan-2-yl]-[6-(3-mesylbenzyl)-2-azaspiro[3.3]heptan-2-yl]methanone], the IC50 was determined as 0.2 nM.

Take `O=C(N1CC2(CC(Cc3cnc(C(F)(F)F)cn3)C2)C1)N1CC2(CC(n3cnc(C4CC4)n3)C2)C1` [Example 193, [6-(3-cyclopropyl-1,2,4-triazol-1-yl)-2-azaspiro[3.3]heptan-2-yl]-[6-[[5-(trifluoromethyl)pyrazin-2-yl]methyl]-2-azaspiro[3.3]heptan-2-yl]methanone]: 0.3 nM corresponded to half-maximal inhibition (IC50).

`COC(=O)C(C)(C)Cc1cccc(OC2CN(C(=O)N3CC4(CC(n5cnc(C6CC6)n5)C4)C3)C2)c1` [Example 194, methyl 3-[3-[1-[6-(3-cyclopropyl-1,2,4-triazol-1-yl)-2-azaspiro[3.3]heptane-2-carbonyl]azetidin-3-yl]oxyphenyl]-2,2-dimethyl-propanoate]: the IC50 was found to be 0.3 nM.

In turn, `O=C(N1CC2(CC(NS(=O)(=O)c3cccc(C(F)(F)F)c3)C2)C1)N1CC2(CC(n3cnc(C4CC4)n3)C2)C1` [Example 195, N-[2-[6-(3-cyclopropyl-1,2,4-triazol-1-yl)-2-azaspiro[3.3]heptane-2-carbonyl]-2-azaspiro[3.3]heptan-6-yl]-3-(trifluoromethyl)benzen esulfonamide] had an IC50 of 0.4 nM.

`O=C(N1CC2(CC(n3cnc(C4CC4)n3)C2)C1)N1CC2(CN(Cc3ccc(F)cc3C(F)(F)F)C2)C1` [Example 196, [6-(3-cyclopropyl-1,2,4-triazol-1-yl)-2-azaspiro[3.3]heptan-2-yl]-[6-[[4-fluoro-2-(trifluoromethyl)phenyl]methyl]-2,6-diazaspiro[3.3]heptan-2-yl]methanone] registered a half-maximal inhibitory concentration (IC50) of 0.4 nM.

For `O=C(N1CCC([C@H](c2ccc(F)cc2)c2nc(C3CC3)no2)CC1)N1CC2(CC(n3cnc(C4CC4)n3)C2)C1` [Example 197, [4-[(R)-(3-cyclopropyl-1,2,4-oxadiazol-5-yl)-(4-fluorophenyl)methyl]-1-piperidyl]-[6-(3-cyclopropyl-1,2,4-triazol-1-yl)-2-azaspiro[3.3]heptan-2-yl]methanone], the IC50 turned out to be 0.4 nM.

`O=C(N1CC(Oc2cccc(C3CC3)c2F)C1)N1CC2(CC(n3cnc(C4CC4)n3)C2)C1` [Example 198, [3-(3-cyclopropyl-2-fluoro-phenoxy)azetidin-1-yl]-[6-(3-cyclopropyl-1,2,4-triazol-1-yl)-2-azaspiro[3.3]heptan-2-yl]methanone] yielded an IC50 of 0.5 nM.

Consider `O=C(N1CC2(CC(Cc3ncc(F)cc3F)C2)C1)N1CC2(CC(n3cnc(C4CC4)n3)C2)C1` [Example 199, [6-(3-cyclopropyl-1,2,4-triazol-1-yl)-2-azaspiro[3.3]heptan-2-yl]-[6-[(3,5-difluoro-2-pyridyl)methyl]-2-azaspiro[3.3]heptan-2-yl]methanone], for which half-maximal inhibition (IC50) was put at 0.5 nM.

`COC(=O)C(C)(C)c1cccc(OC2CN(C(=O)N3CC4(CC(n5cnc(C6CC6)n5)C4)C3)C2)c1` [Example 200, methyl 2-[3-[1-[6-(3-cyclopropyl-1,2,4-triazol-1-yl)-2-azaspiro[3.3]heptane-2-carbonyl]azetidin-3-yl]oxyphenyl]-2-methyl-propanoate] gave an IC50 of 0.7 nM.

On to `O=C(N1CC2(CC(n3cnc(C4CC4)n3)C2)C1)N1CC2(CN(Cc3ccc(F)cc3Cl)C2)C1` [Example 201, (6-(2-chloro-4-fluorobenzyl)-2,6-diazaspiro[3.3]heptan-2-yl)(6-(3-cyclopropyl-1H-1,2,4-triazol-1-yl)-2-azaspiro[3.3]heptan-2-yl)methanone], for which the midpoint of inhibition, the IC50, lay at 0.7 nM.

`O=C(N1CC(Oc2ccc(C(F)(F)F)cc2)C1)N1CC2(CC(n3cnc(C4CC4)n3)C2)C1` [Example 202, [6-(3-cyclopropyl-1,2,4-triazol-1-yl)-2-azaspiro[3.3]heptan-2-yl]-[3-[4-(trifluoromethyl)phenoxy]azetidin-1-yl]methanone] yielded an IC50 of 0.7 nM.

`CC(C)c1ncn(C2CC3(C2)CN(C(=O)N2CC4(CC(Cc5ccc(F)cc5F)C4)C2)C3)n1` [Example 203, [6-[(2,4-difluorophenyl)methyl]-2-azaspiro[3.3]heptan-2-yl]-[6-(3-isopropyl-1,2,4-triazol-1-yl)-2-azaspiro[3.3]heptan-2-yl]methanone]: the IC50 came out at 0.8 nM.

For `O=C(N1CC(Oc2nccc(C3CC3)c2F)C1)N1CC2(CC(n3cnc(C4CC4)n3)C2)C1` [Example 204, [3-[(4-cyclopropyl-3-fluoro-2-pyridyl)oxy]azetidin-1-yl]-[6-(3-cyclopropyl-1,2,4-triazol-1-yl)-2-azaspiro[3.3]heptan-2-yl]methanone], the IC50 was determined as 0.8 nM.

Molecule `CS(=O)(=O)c1ccc(CC2CC3(C2)CN(C(=O)N2CC4(CC(n5cnc(C6CC6)n5)C4)C2)C3)cc1` [Example 205, [6-(3-cyclopropyl-1,2,4-triazol-1-yl)-2-azaspiro[3.3]heptan-2-yl]-[6-(4-mesylbenzyl)-2-azaspiro[3.3]heptan-2-yl]methanone] had an IC50 of 0.9 nM.

Broadly, the IC50 is the concentration that gives 50% inhibition. A low value points to greater potency in that assay.
